For 22 compounds, IC50 results are on record in US9234000B2, “Benzylamine derivatives as inhibitors of plasma kallikrein” (KalVista Pharmaceuticals Limited, priority 2011, dated 2016).

The target of one test is Human KLK1 (Homo sapiens (Human), UniProt P06870). Briefly: Determination of the IC50 for KLK1. Format: biochemical. To be noted: Human KLK1, 37° C., substrate H-DVal-Leu-Arg-AFC. The procedure: Determination of the IC50 for KLK1
(§1) KLK1 inhibitory activity in vitro was determined using standard published methods (see e.g. Johansen et al., Int. J. Tiss. Reac. 1986, 8, 185; Shori et al., Biochem. Pharmacol., 1992, 43, 1209; Stürzebecher et al., Biol. Chem. Hoppe-Seyler, 1992, 373, 1025). Human KLK1 (Callbiochem) was incubated at 37° C. with the fluorogenic substrate H-DVal-Leu-Arg-AFC and various concentrations of the test compound. Residual enzyme activity (initial rate of reaction) was determined by measuring the change in optical absorbance at 410 nm and the IC50 value for the test compound was determined.

Another test concerns the target Human plasma kallikrein (Homo sapiens (Human), UniProt P03952). Kind of test: Determination of the IC50 for plasma kallikrein. To be noted: 37° C., read-out: IC50 (human PKal). Format: biochemical. The procedure: Determination of the IC50 for Plasma Kallikrein
as §1, with “Plasma kallikrein” for “KLK1”, “Stiirzebecher” for “Stürzebecher”, “plasma kallikrein (Protogen)” for “KLK1 (Callbiochem)”, “H-DPro-Phe-Arg-AFC” for “H-DVal-Leu-Arg-AFC”

Where [1] appears, read: fluorogenic substrate H-DPro-Phe-Arg-AFC.

Like-named read-outs stand apart in the source and are kept apart here. Where only a bound is given, the exact number is not on record here.

Chain of Human KLK1 (P06870 25-262): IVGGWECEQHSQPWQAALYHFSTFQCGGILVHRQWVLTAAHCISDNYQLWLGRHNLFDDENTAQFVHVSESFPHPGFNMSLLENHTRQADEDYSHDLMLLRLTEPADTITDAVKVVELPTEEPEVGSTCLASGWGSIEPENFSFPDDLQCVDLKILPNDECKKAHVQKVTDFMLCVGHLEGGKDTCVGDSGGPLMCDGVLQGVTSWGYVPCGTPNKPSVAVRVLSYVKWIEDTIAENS
Chain of Human plasma kallikrein (P03952 391-638): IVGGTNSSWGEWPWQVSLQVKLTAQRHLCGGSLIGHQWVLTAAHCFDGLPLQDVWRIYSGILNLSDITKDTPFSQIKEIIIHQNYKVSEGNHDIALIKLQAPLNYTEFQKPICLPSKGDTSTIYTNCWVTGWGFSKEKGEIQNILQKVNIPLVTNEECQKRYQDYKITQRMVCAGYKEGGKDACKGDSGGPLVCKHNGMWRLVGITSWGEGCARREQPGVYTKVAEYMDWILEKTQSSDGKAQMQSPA
Chain of Human plasma kallikrein (P03952 20-390 partner): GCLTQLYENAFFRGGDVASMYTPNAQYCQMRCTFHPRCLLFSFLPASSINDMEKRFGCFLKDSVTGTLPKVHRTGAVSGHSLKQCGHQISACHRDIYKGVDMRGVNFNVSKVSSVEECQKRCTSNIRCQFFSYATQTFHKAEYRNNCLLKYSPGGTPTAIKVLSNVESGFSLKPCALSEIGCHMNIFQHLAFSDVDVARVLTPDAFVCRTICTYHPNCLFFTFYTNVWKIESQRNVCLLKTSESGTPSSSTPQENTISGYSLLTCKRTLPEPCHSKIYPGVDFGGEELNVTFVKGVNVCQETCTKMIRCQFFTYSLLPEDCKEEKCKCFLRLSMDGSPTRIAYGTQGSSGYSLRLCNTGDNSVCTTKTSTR

For orientation: IC50 means the point on the concentration scale where inhibition reaches its midpoint. `NCc1ccc(CNC(=O)[C@H](Cc2ccccc2)NC(=O)[C@@H](Cc2ccc(O)cc2)NC(=O)c2ccccc2)cc1` [Example 129, N-[(R)-1-[(S)-1-(4-Aminomethyl-benzylcarbamoyl)-2-phenyl-ethylcarbamoyl]-2-(4-hydroxy-phenyl)-ethyl]-benzamide]: the values for the IC50 against Human KLK1 (Table 13) and on Human plasma kallikrein (substrate H-DPro-Phe-Arg-AFC) were above 10 µM and 10 µM, respectively.
The like results for `NCc1ccc(CNC(=O)[C@H](Cc2ccccc2)NC(=O)[C@@H](Cc2ccc(OCc3c(Cl)cccc3Cl)cc2)NC(=O)c2ccccc2)cc1` [Example 134, N-{(R)-1-[(S)-1-(4-Aminomethyl-benzylcarbamoyl)-2-phenyl-ethylcarbamoyl]-2-[4-(2,6-dichloro-benzyloxy)-phenyl]-ethyl}-benzamide] were, in that order, above 10 µM and 10 µM.
The matching figures for `CCOc1ccc(C[C@@H](NC(=O)c2nc(C)oc2C)C(=O)N[C@@H](Cc2ccccc2)C(=O)NCc2ccc(CN)cc2)cc1` [Example 113, 2,5-Dimethyl-oxazole-4-carboxylic acid [(R)-1-[(S)-1-(4-aminomethyl-benzylcarbamoyl)-2-phenyl-ethylcarbamoyl]-2-(4-ethoxy-phenyl)-ethyl]-amide]: above 10 µM and 0.455 µM.
The like results for `CCOc1ccc(C[C@@H](NC(=O)c2cc(C)nn2C)C(=O)N[C@@H](Cc2ccccc2)C(=O)NCc2ccc(CN)cc2)cc1` [Example 82, 2,5-Dimethyl-2H-pyrazole-3-carboxylic acid [(R)-1-[(S)-1-(4-aminomethyl-benzylcarbamoyl)-2-phenyl-ethylcarbamoyl]-2-(4-ethoxy-phenyl)-ethyl]-amide] were, in that order, above 10 µM and 0.539 µM.
Regarding `CCOc1ccc(C[C@@H](NC(=O)c2ccccc2)C(=O)N[C@@H](Cc2ccc(OC)cc2)C(=O)NCc2ccc(CN)cc2)cc1` [Example 146, N-[(R)-1-[(S)-1-(4-Aminomethyl-benzylcarbamoyl)-2-(4-methoxy-phenyl)-ethylcarbamoyl]-2-(4-ethoxy-phenyl)-ethyl]-benzamide], the IC50 against Human KLK1 (Table 13) was above 10 µM; on Human plasma kallikrein (substrate H-DPro-Phe-Arg-AFC) it was 0.232 µM.
The matching figures for `CCCCCC(=O)N[C@H](Cc1ccc(OCC)cc1)C(=O)N[C@@H](Cc1ccccc1)C(=O)NCc1ccc(CN)cc1` [Example 76, Hexanoic acid [(R)-1-[(S)-1-(4-aminomethyl-benzylcarbamoyl)-2-phenyl-ethylcarbamoyl]-2-(4-ethoxy-phenyl)-ethyl]-amide]: 3.6 µM and 0.452 µM.
The matching figures for `CCOc1ccc(C[C@@H](NC(=O)c2ccc(Cl)nc2Cl)C(=O)N[C@@H](Cc2ccccc2)C(=O)NCc2ccc(CN)cc2)cc1` [Example 106, N-[(R)-1-[(S)-1-(4-Aminomethyl-benzylcarbamoyl)-2-phenyl-ethylcarbamoyl]-2-(4-ethoxy-phenyl)-ethyl]-2,6-dichloro-nicotinamide]: 8.4 µM and 0.256 µM.
Take `C[C@@H](NC(=O)c1ccccc1)C(=O)N[C@@H](Cc1ccccc1)C(=O)NCc1ccc(CN)cc1` [Example 22, N-{(R)-1-[(S)-1-(4-Aminomethyl-benzylcarbamoyl)-2-phenyl-ethylcarbamoyl]-ethyl}-benzamide]: the IC50 against Human KLK1 (Table 12) was found to be 9.6 µM; on Human plasma kallikrein (setting [1]) it was 10 µM.
The matching figures for `NCc1ccc(CNC(=O)[C@H](Cc2ccccc2)NC(=O)[C@@H](CC2CCCCC2)NCC(N)=O)cc1` [Example 50, (R)-N-[(S)-1-(4-Aminomethyl-benzylcarbamoyl)-2-phenyl-ethyl]-2-(carbamoylmethyl-amino)-3-cyclohexyl-propionamide]: 5 µM and 4.3 µM.
In the case of `CCOc1ccc(C[C@@H](NC(=O)NCc2ccccc2)C(=O)N[C@@H](Cc2ccccc2)C(=O)NCc2ccc(CN)cc2)cc1` [Example 68, (R)-N-[(S)-1-(4-Aminomethyl-benzylcarbamoyl)-2-phenyl-ethyl]-2-(3-benzyl-ureido)-3-(4-ethoxy-phenyl)-propionamide], the IC50 is above 10 µM against Human KLK1 (Table 13) and 0.861 µM on Human plasma kallikrein (substrate H-DPro-Phe-Arg-AFC).
In the case of `CCOc1ccc(C[C@@H](NC(=O)c2ccccc2)C(=O)N[C@@H](Cc2ccc(C(F)(F)F)cc2)C(=O)NCc2ccc(CN)cc2)cc1` [Example 148, N-[(R)-1-[(S)-1-(4-Aminomethyl-benzylcarbamoyl)-2-(4-trifluoromethyl-phenyl)-ethylcarbamoyl]-2-(4-ethoxy-phenyl)-ethyl]-benzamide], the IC50 was above 10 µM against Human KLK1 (Table 13) and 0.934 µM at Human plasma kallikrein (substrate H-DPro-Phe-Arg-AFC).
The like results for `CCOc1ccc(C[C@@H](NC(=O)c2ccccc2Cl)C(=O)N[C@@H](Cc2ccccc2)C(=O)NCc2ccc(CN)cc2)cc1` [Example 89, N-[(R)-1-[(S)-1-(4-Aminomethyl-benzylcarbamoyl)-2-phenyl-ethylcarbamoyl]-2-(4-ethoxy-phenyl)-ethyl]-2-chloro-benzamide] were, in that order, 3.7 µM and 0.099 µM.
The like results for `CCOc1ccc(C[C@@H](NC(=O)c2cc(C)nc(Cl)c2)C(=O)N[C@@H](Cc2ccccc2)C(=O)NCc2ccc(CN)cc2)cc1` [Example 110, N-[(R)-1-[(S)-1-(4-Aminomethyl-benzylcarbamoyl)-2-phenyl-ethylcarbamoyl]-2-(4-ethoxy-phenyl)-ethyl]-2-chloro-6-methyl-isonicotinamide] were, in that order, above 10 µM and 0.598 µM.
The matching figures for `CCOc1ccc(C[C@@H](NC(=O)c2ccccc2)C(=O)N[C@@H](Cc2c[nH]cn2)C(=O)NCc2ccc(CN)cc2)cc1` [Example 177, N-[(R)-1-[(S)-1-(4-Aminomethyl-benzylcarbamoyl)-2-(1H-imidazol-4-yl)-ethylcarbamoyl]-2-(4-ethoxy-phenyl)-ethyl]-benzamide]: above 10 µM and 0.457 µM.
`CCOc1ccc(C[C@@H](NC(=O)Nc2ccccc2)C(=O)N[C@@H](Cc2ccccc2)C(=O)NCc2ccc(CN)cc2)cc1` [Example 69, (R)-N-[(S)-1-(4-Aminomethyl-benzylcarbamoyl)-2-phenyl-ethyl]-3-(4-ethoxy-phenyl)-2-(3-phenyl-ureido)-propionamide]: the IC50 against Human KLK1 (Table 13) is above 10 µM; on Human plasma kallikrein (substrate H-DPro-Phe-Arg-AFC), 0.621 µM.
The matching figures for `CCOc1ccc(C[C@@H](NC(=O)c2ccnc(OC)c2)C(=O)N[C@@H](Cc2ccccc2)C(=O)NCc2ccc(CN)cc2)cc1` [Example 123, N-[(R)-1-[(S)-1-(4-Aminomethyl-benzylcarbamoyl)-2-phenyl-ethylcarbamoyl]-2-(4-ethoxy-phenyl)-ethyl]-2-methoxy-isonicotinamide]: above 10 µM and 0.214 µM.
The matching figures for `CCOc1ccc(C[C@@H](NC(=O)CC)C(=O)N[C@@H](Cc2cccnc2)C(=O)NCc2ccc(CN)cc2)cc1` [Example 170, (R)-N-[(S)-1-(4-Aminomethyl-benzylcarbamoyl)-2-pyridin-3-yl-ethyl]-3-(4-ethoxy-phenyl)-2-propionylamino-propionamide]: above 10 µM and 0.051 µM.
Consider `CCOc1ccc(C[C@@H](NC(=O)CC)C(=O)N[C@@H](Cc2ccc(Cl)c(Cl)c2)C(=O)NCc2ccc(CN)cc2)cc1` [Example 16, (S)-N-(4-Aminomethyl-benzyl)-3-(3,4-dichloro-phenyl)-2-[(R)-3-(4-ethoxy-phenyl)-2-propionylamino-propionylamino]-propionamide], for which the IC50 was 4.9 µM against Human KLK1 (Table 12) and 0.053 µM at Human plasma kallikrein (setting [1]).
With `CCOc1ccc(C[C@@H](NC(=O)CCc2ccccc2)C(=O)N[C@@H](Cc2ccccc2)C(=O)NCc2ccc(CN)cc2)cc1` [Example 86, (S)-N-(4-Aminomethyl-benzyl)-2-[(R)-3-(4-ethoxy-phenyl)-2-(3-phenyl-propionylamino)-propionylamino]-3-phenyl-propionamide], the IC50 against Human KLK1 (Table 13) is above 10 µM; at Human plasma kallikrein (substrate H-DPro-Phe-Arg-AFC), 0.423 µM.
The like results for `CCOc1ccc(C[C@@H](NC(=O)c2ccc(C)nc2)C(=O)N[C@@H](Cc2ccccc2)C(=O)NCc2ccc(CN)cc2)cc1` [Example 104, N-[(R)-1-[(S)-1-(4-Aminomethyl-benzylcarbamoyl)-2-phenyl-ethylcarbamoyl]-2-(4-ethoxy-phenyl)-ethyl]-6-methyl-nicotinamide] were, in that order, above 10 µM and 0.159 µM.
The matching figures for `CCOc1ccc(C[C@@H](NS(=O)(=O)Cc2ccccc2)C(=O)N[C@@H](Cc2ccccc2)C(=O)NCc2ccc(CN)cc2)cc1` [Example 100, (R)-N-[(S)-1-(4-Aminomethyl-benzylcarbamoyl)-2-phenyl-ethyl]-3-(4-ethoxy-phenyl)-2-phenylmethanesulfonylamino-propionamide]: 2.9 µM and 0.474 µM.
The matching figures for `CCOc1ccc(C[C@@H](NC(=O)c2cccnc2C)C(=O)N[C@@H](Cc2ccccc2)C(=O)NCc2ccc(CN)cc2)cc1` [Example 105, N-[(R)-1-[(S)-1-(4-Aminomethyl-benzylcarbamoyl)-2-phenyl-ethylcarbamoyl]-2-(4-ethoxy-phenyl)-ethyl]-2-methyl-nicotinamide]: above 10 µM and 0.185 µM.
